Laboratory results reported in patent publication EP0435693B1, “Pharmaceutical compositions containing 3-oxygermylpropionic acid polymers for inhibiting the degeneration of cells” (SANWA KAGAKU KENKYUSHO CO., LTD., priority 1989, dated 1991).

Assays:
Type B chronic hepatitis = test: Clinical test for Type B chronic hepatitis against placebo; format: in vivo, patients
Description: The efficacy of SK-818 against Type B chronic hepatitis was examined, using a placebo as control.
The subjects were patients who had been diagnosed by biopsy as chronic hepatitis before at most one year in principle, were positive to HBe antigens and had Type B chronic hepatitis in need of treatment.
• (i) The drug under test was a capsule containing 10 mg of SK-818. • (ii) The control consisted only of lactose (a placebo).
The subjects followed the standard prescription of three capsules a day and one capsule each meal over 16 weeks in principle.
The general examination of the functioning of the livers and blood and the measurement of HBe antigens and antibodies were all carried out by the Virus Hepatitis Research Foundation.

MRL/1 masculine mice = test: Prevention of spontaneous nephritis of MRL/1 mice; format: in vivo; set-up: Blood-urinary nitrogen levels, BUN: unit not given here; conditions: for Blood-urinary nitrogen levels, BUN: day following the final administration
Description: The action of SK-818 on preventing the development of spontaneous nephritis of MRL/1 mice (or an impairment of the functioning of the kidney asaociated with aging) was examined.
Given amounts (0.1 mg/kg, 1.0 mg/kg and 10.0 mg/kg a day) of SK-818, in the form of a mixture of the composition of Preparation Ex. 1 with feed, were administered orally MRL/1 masculine mice of six-week age (16 for each group) twice a week over 12 weeks. In the meantime, urinary protein was measured once a week; urinary protein levels exceeding 100 mg/dl were taken as positive. Examination was then made of how many animals became positive at the respective week-ages. Moreover, blood-urinary nitrogen levels were determined on the day following the final administration to make serological/physiological and pathological estimations of the action of SK-818 on nephritis.
The urinary protein and blood-urinary nitrogen levels were measured with Protein Pre-test (made by Wako Junyaku K.K.) and Urinary Nitrogen B-Test according to the urease/indophenol method (made by Wako Junyaku K.K.), respectively.

[1] = SK-818 against Placebo, time points with significance
[2] = determined by physicians, Total 95

3-oxygermylpropionic acid [SK-818]
GOT (Type B chronic hepatitis; 4W): ↓ * | GPT (Type B chronic hepatitis; 4W): ↓ * | HBe antibodies (RIA%) (Type B chronic hepatitis; 4W): ↑ * | HBe antigens (EIA) log (Type B chronic hepatitis; 4W): ↓*** | LDH (mu/ml) (Type B chronic hepatitis; 4W): ↓ + | Total Bilirubin (mg/dl) (Type B chronic hepatitis; 4W): ↓ * | AIP (KA) (Type B chronic hepatitis; 8W): ↓ + | Cholinesterase (ΔPH) (Type B chronic hepatitis; 8W): ↑ * | GOT (Type B chronic hepatitis; 8W): ↓ + | GPT (Type B chronic hepatitis; 8W): ↓** | HBe antibodies (RIA%) (Type B chronic hepatitis; 8W): ↑ * | HBe antigens (EIA) log (Type B chronic hepatitis; 8W): ↓ ** | LDH (mu/ml) (Type B chronic hepatitis; 8W): ↓ + | Total Cholesterol (mg/dl) (Type B chronic hepatitis; 8W): ↑ * | AIP (KA) (Type B chronic hepatitis; 12W): ↓ + | Cholinesterase (ΔPH) (Type B chronic hepatitis; 12W): ↑ * | GOT (Type B chronic hepatitis; 12W): ↓*** | GPT (Type B chronic hepatitis; 12W): ↓*** | HBe antibodies (RIA%) (Type B chronic hepatitis; 12W): ↑ ** | HBe antigens (EIA) log (Type B chronic hepatitis; 12W): ↓*** | LDH (mu/ml) (Type B chronic hepatitis; 12W): ↓ * | Serum Albumin (g/dl) (Type B chronic hepatitis; 12W): ↑ * | TTT (Type B chronic hepatitis; 12W): ↓** | Total Cholesterol (mg/dl) (Type B chronic hepatitis; 12W): ↑ * | ZTT (Type B chronic hepatitis; 12W): ↓** | γ-GTP (mu/ml) (Type B chronic hepatitis; 12W): ↓** | γ-Globulin (g/dl) (Type B chronic hepatitis; 12W): ↓** | GOT (Type B chronic hepatitis; 16W): ↓*** | GPT (Type B chronic hepatitis; 16W): ↓*** | HBe antibodies (RIA%) (Type B chronic hepatitis; 16W): ↑ * | HBe antigens (EIA) log (Type B chronic hepatitis; 16W): ↓*** | Serum Albumin (g/dl) (Type B chronic hepatitis; 16W): ↑ + | TTT (Type B chronic hepatitis; 16W): ↓*** | Total Cholesterol (mg/dl) (Type B chronic hepatitis; 16W): ↑ * | ZTT (Type B chronic hepatitis; 16W): ↓** | γ-GTP (mu/ml) (Type B chronic hepatitis; 16W): ↓ ** | γ-Globulin (g/dl) (Type B chronic hepatitis; 16W): ↓*** | Cholinesterase (ΔPH) (Type B chronic hepatitis; Af4W (after 4 weeks)): ↑ * | GOT (Type B chronic hepatitis; Af4W (after 4 weeks)): ↓ ** | GPT (Type B chronic hepatitis; Af4W (after 4 weeks)): ↓ ** | HBe antibodies (RIA%) (Type B chronic hepatitis; Af4W (after 4 weeks)): ↑ * | HBe antigens (EIA) log (Type B chronic hepatitis; Af4W (after 4 weeks)): ↓*** | TTT (Type B chronic hepatitis; Af4W (after 4 weeks)): ↓*** | ZTT (Type B chronic hepatitis; Af4W (after 4 weeks)): ↓** | γ-GTP (mu/ml) (Type B chronic hepatitis; Af4W (after 4 weeks)): ↓ ** | γ-Globulin (g/dl) (Type B chronic hepatitis; Af4W (after 4 weeks)): ↓*** | Cholinesterase (ΔPH) (Type B chronic hepatitis; Af8W (after 8 weeks)): ↑** | GOT (Type B chronic hepatitis; Af8W (after 8 weeks)): ↓ ** | GPT (Type B chronic hepatitis; Af8W (after 8 weeks)): ↓ ** | HBe antibodies (RIA%) (Type B chronic hepatitis; Af8W (after 8 weeks)): ↑ ** | HBe antigens (EIA) log (Type B chronic hepatitis; Af8W (after 8 weeks)): ↓*** | TTT (Type B chronic hepatitis; Af8W (after 8 weeks)): ↓ * | Total Cholesterol (mg/dl) (Type B chronic hepatitis; Af8W (after 8 weeks)): ↑* | ZTT (Type B chronic hepatitis; Af8W (after 8 weeks)): ↓ * | γ-GTP (mu/ml) (Type B chronic hepatitis; Af8W (after 8 weeks)): ↓ * | γ-Globulin (g/dl) (Type B chronic hepatitis; Af8W (after 8 weeks)): ↓ * | Cholinesterase (ΔPH), Differences between groups (Type B chronic hepatitis; [1]): 4w* 12W** Af4W* 8w** 16w* Af8w+ | GPT, Differences between groups (Type B chronic hepatitis; [1]): 8w* 12w** 16W* Af4w* | HBe antibodies (RIA%), Differences between groups (Type B chronic hepatitis; [1]): 4W* 12W* 16W* Af8w+ | HBe antigens (EIA) log, Differences between groups (Type B chronic hepatitis; [1]): 4W** 12W* 16W* Af4w* | TTT, Differences between groups (Type B chronic hepatitis; [1]): Af4w+ | Total Cholesterol (mg/dl), Differences between groups (Type B chronic hepatitis; [1]): 8W* 16W** 12W** Af8w* | γ-Globulin (g/dl), Differences between groups (Type B chronic hepatitis; [1]): 12W+ Af4w* 16w+ Af8w+ | Rate of Amelioration, Slightly ameliorated or more (Type B chronic hepatitis; determined by physicians, P=0.0011 against placebo): 57.9% | Rate of Amelioration, Ameliorated to some or higher extent (Type B chronic hepatitis; determined by physicians, P=0.0114 against placebo): 36.8 | Degree of Amelioration: Ameliorated to some extent (number of cases) (Type B chronic hepatitis; [2]): 23 | Degree of Amelioration: Less aggravated (number of cases) (Type B chronic hepatitis; [2]): 5 | Degree of Amelioration: Nochange (number of cases) (Type B chronic hepatitis; [2]): 31 | Degree of Amelioration: Slightly ameliorated (number of cases) (Type B chronic hepatitis; [2]): 20 | Degree of Amelioration: aggravated (number of cases) (Type B chronic hepatitis; [2]): 4 | Degree of Amelioration: seriously aggravated (number of cases) (Type B chronic hepatitis; [2]): 0 | Degree of Amelioration: Remarkably ameliorated (number of cases) (Type B chronic hepatitis; determined by physicians, Total 95, 10 mg capsule three a day over 16 weeks): 12 | Number of animals with positive urinary protein levels (MRL/1 masculine mice; 0.1 mg/kg, 16 week-age, positive = exceeding 100 mg/dl): 4/15 | Number of animals with positive urinary protein levels (MRL/1 masculine mice; 0.1 mg/kg, 17 week-age): 7/15 | Number of animals with positive urinary protein levels (MRL/1 masculine mice; 0.1 mg/kg, 18 week-age): 10/15 | Blood-urinary nitrogen levels, BUN (MRL/1 masculine mice; 0.1 mg/kg): 32.2±1.6 | Number of animals with positive urinary protein levels (MRL/1 masculine mice; 1 mg/kg, 16 week-age): 4/15 | Number of animals with positive urinary protein levels (MRL/1 masculine mice; 1 mg/kg, 17 week-age): 6/15 | Number of animals with positive urinary protein levels (MRL/1 masculine mice; 1 mg/kg, 18 week-age): 8/15 | Blood-urinary nitrogen levels, BUN (MRL/1 masculine mice; 1 mg/kg): 35.5±3.3 | Number of animals with positive urinary protein levels (MRL/1 masculine mice; 10 mg/kg, 16 week-age): 2/15 | Number of animals with positive urinary protein levels (MRL/1 masculine mice; 10 mg/kg, 17 week-age): 4/15 | Number of animals with positive urinary protein levels (MRL/1 masculine mice; 10 mg/kg, 18 week-age): 8/15 | Blood-urinary nitrogen levels, BUN (MRL/1 masculine mice; 10 mg/kg): 29.3±1.7 | increase in the blood-urinary nitrogen levels (MRL/1 masculine mice; At 10 mg/kg): significantly inhibited | increase in the urinary protein levels (MRL/1 masculine mice; At 10 mg/kg): remarkably inhibited | glomeruli that become more morbid (MRL/1 masculine mice; groups medicated with SK-818, control group 57 %): 23-34%
